{"source": "ChEMBL document CHEMBL3112396", "about": "“Synthesis of aminoalkyl-substituted coumarin derivatives as acetylcholinesterase inhibitors” (Bioorg Med Chem, 2014)", "key": {"Acetylcholinesterase": {"molecular_target": "T1, Acetylcholinesterase (Mus musculus, UniProt P21836)", "T1 sequence (P21836 whole entry)": "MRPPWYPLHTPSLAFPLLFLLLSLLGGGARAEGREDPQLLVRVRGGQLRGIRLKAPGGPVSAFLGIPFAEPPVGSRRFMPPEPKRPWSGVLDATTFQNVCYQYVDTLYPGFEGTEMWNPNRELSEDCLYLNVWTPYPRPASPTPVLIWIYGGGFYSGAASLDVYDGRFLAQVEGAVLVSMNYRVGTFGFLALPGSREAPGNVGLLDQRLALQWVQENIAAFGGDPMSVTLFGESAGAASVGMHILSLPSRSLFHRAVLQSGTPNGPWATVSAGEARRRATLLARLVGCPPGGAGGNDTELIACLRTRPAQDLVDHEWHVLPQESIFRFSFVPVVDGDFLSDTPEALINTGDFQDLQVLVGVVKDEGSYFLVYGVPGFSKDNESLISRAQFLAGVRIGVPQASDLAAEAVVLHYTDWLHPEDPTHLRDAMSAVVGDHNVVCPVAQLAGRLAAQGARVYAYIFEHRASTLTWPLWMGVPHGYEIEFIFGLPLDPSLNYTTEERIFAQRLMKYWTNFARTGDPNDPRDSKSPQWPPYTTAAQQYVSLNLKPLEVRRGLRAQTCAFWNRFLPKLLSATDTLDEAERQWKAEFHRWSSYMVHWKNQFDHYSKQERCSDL", "test": "Inhibition of ICR mouse brain AChE using acetylthiocholine iodide as substrate incubated 10 mins prior to substrate addition measured after 10 mins by Ellman's method"}, "Mus musculus [1]": {"tested_on": "Mus musculus", "test": "Memory enhancing effect in ICR mouse assessed as reversal of scopolamine-induced amnesia by measuring step-through latencies at 1 mg/kg, po administered 1 hr prior to acquisition trial measured after 24 hrs by passive avoidance test relative to control", "format": "functional, organism-based", "parameters": "dose 1 mg/kg"}, "Mus musculus [2]": {"tested_on": "Mus musculus", "test": "Memory enhancing effect in ICR mouse assessed as reversal of scopolamine-induced amnesia by measuring step-through latencies at 0.5 to 5 mg/kg, po after 1 hr by passive avoidance test", "format": "functional, organism-based"}, "Mus musculus [3]": {"tested_on": "Mus musculus", "test": "Memory enhancing effect in ICR mouse assessed as reversal of scopolamine-induced amnesia by measuring step-through latencies at 0.25 to 5 mg/kg, po administered 1 hr prior to acquisition trial measured after 24 hrs by passive avoidance test", "format": "functional, organism-based"}, "Mus musculus [4]": {"tested_on": "Mus musculus", "test": "Memory enhancing effect in ICR mouse assessed as reversal of scopolamine-induced amnesia by measuring step-through latencies at 2 mg/kg, po administered 1 hr prior to acquisition trial measured after 24 hrs by passive avoidance test relative to control", "format": "functional, organism-based", "parameters": "dose 2 mg/kg"}}, "note": "The source made the active and inactive calls. The rule behind the calls is not given here.", "data": [{"smiles": "COc1cc2ccc(=O)oc2cc1O", "note": "[SCOPOLETIN]", "values": [{"measurement": "IC50", "setting": "Acetylcholinesterase", "result": 476, "unit": "µM"}]}, {"smiles": "CCN(CC)CCCOc1cc2ccc(=O)oc2cc1O", "values": [{"measurement": "IC50", "setting": "Acetylcholinesterase", "result": 30.5, "unit": "µM"}]}, {"smiles": "CC(C)NCCCOc1cc2ccc(=O)oc2cc1O", "values": [{"measurement": "IC50", "setting": "Acetylcholinesterase", "result": 27, "unit": "µM"}]}, {"smiles": "O=c1ccc2cc(OCCN3CCCCC3)c(O)cc2o1", "values": [{"measurement": "IC50", "setting": "Acetylcholinesterase", "result": 12.2, "unit": "µM"}]}, {"smiles": "O=c1ccc2cc(OCCCN3CCCCC3)c(O)cc2o1", "values": [{"measurement": "IC50", "setting": "Acetylcholinesterase", "result": 19.1, "unit": "µM"}]}, {"smiles": "O=c1ccc2cc(OCCCN3CCCC3)c(O)cc2o1", "values": [{"measurement": "Activity", "setting": "Mus musculus [1]", "result": "Active"}, {"measurement": "Activity", "setting": "Mus musculus [2]", "result": "inactive"}, {"measurement": "Activity", "setting": "Mus musculus [3]", "result": "Active"}, {"measurement": "IC50", "setting": "Acetylcholinesterase", "result": 2.87, "unit": "µM"}]}, {"smiles": "CCN(CC)CCOc1cc2ccc(=O)oc2cc1O", "values": [{"measurement": "IC50", "setting": "Acetylcholinesterase", "result": 18.7, "unit": "µM"}]}, {"smiles": "O=c1ccc2cc(OCCN3CCCC3)c(O)cc2o1", "values": [{"measurement": "Activity", "setting": "Mus musculus [4]", "result": "Active"}, {"measurement": "Activity", "setting": "Mus musculus [2]", "result": "inactive"}, {"measurement": "Activity", "setting": "Mus musculus [3]", "result": "Active"}, {"measurement": "IC50", "setting": "Acetylcholinesterase", "result": 6.85, "unit": "µM"}]}, {"smiles": "COc1ccc2c3c1O[C@H]1C[C@@H](O)C=C[C@@]31CCN(C)C2", "values": [{"measurement": "Activity", "setting": "Mus musculus [1]", "result": "Active"}]}]}
